Data: patent US9241487B2, “Pyrimidine derivatives and use thereof as pesticides” (BAYER INTELLECTUAL PROPERTY GMBH, priority 2010, dated 2016)

Experiments:
Alternaria solani = experiment: Alternaria test (tomato)/protective; format: in vivo; details: 168 h, tomato plants, protective spray, evaluation 7 days after inoculation, read-out: Efficacy (%)
Experimental: Alternaria Test (Tomato)/Protective
(§1) Solvent: 49 parts by weight of N,N-dimethylformamide
(§2) Emulsifier: 1 part by weight of alkylaryl polyglycol ether
To produce a suitable preparation of active compound, 1 part by weight of active compound is mixed with the stated amounts of solvent and emulsifier, and the concentrate is diluted with water to the desired concentration. To test for protective activity, young tomato plants are sprayed with the preparation of active compound at the stated application rate. 1 day after the treatment, the plants are inoculated with a spore suspension of Alternaria solani and then remain at 100% rd. humidity and 22° C. for 24 h. The plants then remain at 96% rd. atmospheric humidity and a temperature of 20° C. Evaluation is carried out 7 days after the inoculation. 0% means an efficacy which corresponds to that of the control, whereas an efficacy of 100% means that no infection is observed.
(§3) In this test, the following compounds according to the invention show, at an active compound concentration of 500 ppm, an efficacy of 70% or more: […]

[1] = log P by HPLC on reversed-phase columns (C 18), EEC directive 79/831 Annex V.A8; format: physicochemical; details: reversed-phase HPLC columns (C 18); method [a]: LC-MS, acidic range pH 2.7, 0.1% aqueous formic acid/acetonitrile, gradient 10% to 95% acetonitrile
Experimental: The log P values were measured according to EEC directive 79/831 Annex V.A8 by HPLC (High Performance Liquid Chromatography) on reversed-phase columns (C 18), using the methods below: [a] The LC-MS determination in the acidic range is carried out at pH 2.7 with 0.1% aqueous formic acid and acetonitrile (contains 0.1% formic acid) as mobile phases; linear gradient from 10% acetonitrile to 95% acetonitrile.

Septoria tritici = Septoria tritici test (wheat)/protective; format: in vivo; details: Zymoseptoria tritici, 504 h, protective spray, evaluation 21 days after inoculation, read-out: Efficacy (%)
Experimental: Septoria tritici Test (Wheat)/Protective
(§4) Solvent: 49 parts by weight of N,N-dimethylacetamide
as §2
(§5) To produce a suitable preparation of active compound, 1 part by weight of active compound is mixed with the stated amounts of solvent and emulsifier, and the concentrate is diluted with water to the desired concentration. To test for protective activity, young plants are sprayed with the preparation of active compound at the stated application rate. After the spray coating has dried on, the plants are sprayed with a spore suspension of Septoria tritici. The plants remain in an incubation cabin at 20° C. and 100% relative atmospheric humidity for 48 hours. Thereafter, the plants are placed under a translucent hood at 15° C. and 100% relative air humidity for a further 60 hours. The plants are placed in a greenhouse at a temperature of about 15° C. and a relative atmospheric humidity of about 80%. Evaluation follows 21 days after the inoculation. 0% means an efficacy which corresponds to that of the control, whereas an efficacy of 100% means that no infection is observed.
as §3

Puccinia triticina = Puccinia triticina test (wheat)/protective; format: in vivo; details: 192 h, protective spray, evaluation 8 days after inoculation, read-out: Efficacy (%)
Experimental: Puccinia triticina Test (Wheat)/Protective
as §4, §2
as §5, with “sprayed with spores with a spore” for “sprayed with a spore”, “suspension of Puccinia triticina. The plants” for “suspension of Septoria tritici. The plants”, “48 hours. The plants” for “48 hours. Thereafter, the plants are placed under a translucent hood at 15° C. and 100% relative air humidity for a further 60 hours. The plants”, “of about 20° C. and” for “of about 15° C. and”, “Evaluation follows 8 days after” for “Evaluation follows 21 days after”
as §3

Sphaerotheca fuliginea = experiment: Sphaerotheca test (cucumber)/protective; format: in vivo; details: Podosphaera fuliginea, 168 h, cucumber plants, protective spray, evaluation 7 days after inoculation, read-out: Efficacy (%)
Experimental: Sphaerotheca Test (Cucumber)/Protective
as §1, §2
To produce a suitable preparation of active compound, 1 part by weight of active compound is mixed with the stated amounts of solvent and emulsifier, and the concentrate is diluted with water to the desired concentration. To test for protective activity, young cucumber plants are sprayed with the preparation of active compound at the stated application rate. 1 day after the treatment, the plants are inoculated with a spore suspension of Sphaerotheca fuliginea. The plants are then placed in a greenhouse at 70% relative air humidity and a temperature of 23° C. Evaluation follows 7 days after the inoculation. 0% means an efficacy which corresponds to that of the control, whereas an efficacy of 100% means that no infection is observed. In this test, the following compounds according to the invention show, at an active compound concentration of 500 ppm, an efficacy of 70% or more: […]

[2] = system: Blumeria graminis fsp. hordei; experiment: Blumeria graminis test (barley)/protective; format: in vivo; details: 168 h, protective spray, evaluation 7 days after inoculation, read-out: Efficacy (%)
Experimental: Blumeria graminis Test (Barley)/Protective
as §4, §2
To produce a suitable preparation of active compound, 1 part by weight of active compound is mixed with the stated amounts of solvent and emulsifier, and the concentrate is diluted with water to the desired concentration. To test for protective activity, young plants are sprayed with the preparation of active compound at the stated application rate. After the spray coating has dried on, the plants are dusted with spores of Blumeria graminis fsp. hordei. The plants are placed in a greenhouse at a temperature of about 18° C. and a relative air humidity of about 80% to promote the development of mildew pustules. Evaluation follows 7 days after the inoculation. 0% means an efficacy which corresponds to that of the control, whereas an efficacy of 100% means that no infection is observed.
as §3

Leptosphaeria nodorum = Leptosphaeria nodorum test (wheat)/protective; format: in vivo; details: Parastagonospora nodorum, wheat plants, protective spray, evaluation 7-9 days after inoculation, read-out: Efficacy (%)
Experimental: Leptosphaeria nodorum Test (Wheat)/Protective
as §1, §2
To produce a suitable preparation of active compound, 1 part by weight of active compound is mixed with the stated amounts of solvent and emulsifier, and the concentrate is diluted with water to the desired concentration. To test for protective activity, young wheat plants are sprayed with the preparation of active compound at the stated application rate. 1 day after the treatment, the plants are inoculated with an aqueous spore suspension of Leptosphaeria nodorum and then remain at 100% relative atmospheric humidity and 22° C. for 48 h. The plants are then placed in a greenhouse at 90% relative atmospheric humidity and a temperature of 22° C. Evaluation is carried out 7-9 days after the inoculation. 0% means an efficacy which corresponds to that of the control, whereas an efficacy of 100% means that no infection is observed. In this test, the following compounds according to the invention show, at an active compound concentration of 500 ppm, an efficacy of 70% or more: […]

Uromyces appendiculatus = experiment: Uromyces test (bean)/protective; format: in vivo; details: 240 h, protective spray, evaluation 10 days after inoculation, read-out: Efficacy (%)
Experimental: Uromyces Test (Bean)/Protective
(§6) Solvents: 24.5 parts by weight of acetone
(§7) • 24.5 parts by weight of dimethylacetamide Emulsifier: 1 part by weight of alkylaryl polyglycol ether
To produce a suitable preparation of active compound, 1 part by weight of active compound is mixed with the stated amounts of solvent and emulsifier, and the concentrate is diluted with water to the desired concentration. To test for protective activity, young plants are sprayed with the preparation of active compound at the stated application rate. After the spray coating has dried on, the plants are inoculated with an aqueous spore suspension of the bean rust pathogen Uromyces appendiculatus and then remain in an incubation cabin at about 20° C. and 100% relative atmospheric humidity for 1 day. The plants are then placed in the greenhouse at about 21° C. and a relative atmospheric humidity of about 90%. Evaluation follows 10 days after the inoculation. 0% means an efficacy which corresponds to that of the control, whereas an efficacy of 100% means that no infection is observed.
(§8) In this test, the following compounds according to the invention show, at an active compound concentration of 100 ppm, an efficacy of 70% or more: […]

Venturia inaequalis = experiment: Venturia test (apple)/protective; format: in vivo; details: 240 h, protective spray, evaluation 10 days after inoculation, read-out: Efficacy (%)
Experimental: Venturia Test (Apple)/Protective
as §6, §7
To produce a suitable preparation of active compound, 1 part by weight of active compound is mixed with the stated amounts of solvent and emulsifier, and the concentrate is diluted with water to the desired concentration. To test for protective activity, young plants are sprayed with the preparation of active compound at the stated application rate. After the spray coating has dried on, the plants are inoculated with an aqueous conidia suspension of the apple scab pathogen Venturia inaequalis and then remain in an incubation cabin at approx. 20° C. and 100% relative air humidity for 1 day. The plants are then placed in the greenhouse at about 21° C. and a relative atmospheric humidity of about 90%. Evaluation follows 10 days after the inoculation. 0% means an efficacy which corresponds to that of the control, whereas an efficacy of 100% means that no infection is observed.
as §8

Q: With `CC1(C(O)(COc2ccc(SC(F)(F)F)cc2)c2cncnc2)CC1` (stereo not drawn) [Compound 19] as the compound, how does the pest or weed control at 500 ppm (Alternaria solani) read?
A: The pest or weed control at 500 ppm was 90%.

Q: What about the chromatographic logP [1] of the same compound?
A: Its chromatographic logP is 3.3.

Q: What about the pest or weed control at 500 ppm (Septoria tritici) of the same compound?
A: The pest or weed control at 500 ppm was 86%.

Q: What about the pest or weed control at 500 ppm (Puccinia triticina) of the same compound?
A: Its pest or weed control at 500 ppm is 100%.

Q: And the pest or weed control at 500 ppm (Sphaerotheca fuliginea)?
A: The pest or weed control at 500 ppm was 95%.

Q: And the pest or weed control at 500 ppm [2]?
A: The pest or weed control at 500 ppm was 100%.

Q: And the pest or weed control at 500 ppm (Leptosphaeria nodorum)?
A: Its pest or weed control at 500 ppm is 95%.

Q: With `Cc1cc(OC(F)(F)F)ccc1OCC(O)(c1cncnc1)C(C)(C)C` (stereo not drawn) [Compound 30] as the compound, how does the pest or weed control at 500 ppm (Alternaria solani) read?
A: Its pest or weed control at 500 ppm is 90%.

Q: And the chromatographic logP [1]?
A: Its chromatographic logP is 3.59.

Q: What about the pest or weed control at 100 ppm (Uromyces appendiculatus) of the same compound?
A: The pest or weed control at 100 ppm was 100%.

Q: And the pest or weed control at 500 ppm (Septoria tritici)?
A: The pest or weed control at 500 ppm was 71%.

Q: What about the pest or weed control at 100 ppm (Venturia inaequalis) of the same compound?
A: Its pest or weed control at 100 ppm is 98%.

Q: What about the pest or weed control at 500 ppm (Puccinia triticina) of the same compound?
A: Its pest or weed control at 500 ppm is 100%.

Q: What about the pest or weed control at 500 ppm (Sphaerotheca fuliginea) of the same compound?
A: Its pest or weed control at 500 ppm is 100%.

Q: What about the pest or weed control at 500 ppm [2] of the same compound?
A: The pest or weed control at 500 ppm was 100%.

Q: And the pest or weed control at 500 ppm (Leptosphaeria nodorum)?
A: Its pest or weed control at 500 ppm is 89%.

Q: Which pest or weed control at 500 ppm (Alternaria solani) does the source give for `CC(C)(C)C(O)(COc1ccc(SC(F)(F)F)c(Cl)c1)c1cncnc1` (stereo not drawn) [Compound 31] here?
A: Its pest or weed control at 500 ppm is 95%.

Q: What about the chromatographic logP [1] of the same compound?
A: The chromatographic logP was 3.76.

Q: What about the pest or weed control at 100 ppm (Uromyces appendiculatus) of the same compound?
A: The pest or weed control at 100 ppm was 100%.

Q: What about the pest or weed control at 100 ppm (Venturia inaequalis) of the same compound?
A: The pest or weed control at 100 ppm was 99%.

Q: And the pest or weed control at 500 ppm (Sphaerotheca fuliginea)?
A: Its pest or weed control at 500 ppm is 100%.

Q: And the pest or weed control at 500 ppm (Leptosphaeria nodorum)?
A: The pest or weed control at 500 ppm was 95%.

Q: Which results are given for `CC(C)(C)C(O)(COc1ccc(S(=O)(=O)C(F)(F)F)cc1)c1cncnc1` (stereo not drawn) [Compound 33]?
A: pest or weed control at 500 ppm (Alternaria solani): 89%; chromatographic logP [1]: 2.82; pest or weed control at 100 ppm (Uromyces appendiculatus): 100%; pest or weed control at 100 ppm (Venturia inaequalis): 99%; pest or weed control at 500 ppm (Puccinia triticina): 100%; pest or weed control at 500 ppm (Sphaerotheca fuliginea): 95%; pest or weed control at 500 ppm [2]: 100%; pest or weed control at 500 ppm (Leptosphaeria nodorum): 94%
